From patent US11957693B2, “Combination MCL-1 inhibitors with anti-cancer agents” (Gilead Sciences, Inc., priority 2021, dated 2024) come the findings set out here.

Holding throughout (type): cell-based
In assay [1] the test system is panel of breast cancer cell lines. Nature of the assay: 72-hour in vitro proliferation combination assay, compound A with targeted agents and chemotherapies (Example 3, Table 21).
A further assay relates to HCC1806. Kind of assay: Cell viability combination assay (Cell Titer Glo, Bliss synergy matrix), paclitaxel 4 h pretreatment then compound A. The settings on record: for Synergy Results (95% CI): Paclitaxel 0.000 μM. As for the experimental part:
(§1) Cells were passaged according to ATCC guidelines with 0.25% Trypsin/EDTA (1× GIBCO-25200).
(§2) Viability assessments were performed using Cell Titer Glo™ (Promega #G9241) according to manufactures microwell plate protocol and read for luminescence on Synergy Neo2 plate reader.
(§3) For synergy matrix assays, TNBC cell lines were seeded 10,000 cells per well in clear-bottomed white 96-well plates (Corning #3909) in 100 μL of recommended cell culture medium. Plates were incubated at 37° C. and 100% RH for 20 hours prior to compound exposure.
(§4) Cells were then exposed to compound A with the same checkerboard matrix using D300 dispenser and incubated for 48 hours prior to measurement of viability by Cell Titer Glo.
(§5) Calculated values were compared to experimental results generated in the sixty-three-concentration checkerboard. Synergy or antagonism scores were generated depending on whether the observed growth inhibition was greater than or less than the calculated values, respectively.
(§6) These differences were summed up across the whole checker-board (sixty-three wells) to give cumulative synergy and antagonism scores with units of μM^2% to reflect the 2D surface of the dose responses.
(§7) Data for combination assays is presented in three formats.
Background: Cellular ATP, detected with luciferase, serves as a proxy for viable cell number.

The test system of a further assay is HCC1187 (TNBC). Nature of the assay: Cell viability combination assay (Cell Titer Glo, Bliss synergy matrix), compound A + SN-38. The settings on record: HCC1187 1st Replicate (n = 5); SN-38 0.0000 μM; Compound A μM = c0 of row; 72 h.
Source text: as §1, §5, §7

Another assay concerns MCL1-BAK Dimer. Kind of assay: MCL1-BAK dimer MSD assay in TNBC cell lines after paclitaxel. The following applies: HCC70, MDA-MB-468, HCC1806; paclitaxel 1 μM for 4 hours, overnight incubation. As for the experimental part:
(§8) Cell lysates for MSD assays were generated using 1× Lysis Buffer (10× cell signaling CST-9803) 100× Protease Inhibitor, Phosphatase Inhibitor I, Phosphatase Inhibitor II (Meso Scale Discovery Inhibitor Pack R70AA-1, and PMSF (SIGMA cat #7626)
(§9) MCL-BAK and MCL1-BIM dimer assays and total MCL1 assay were developed by MSD Custom Assay Services and run using the MSD U-PLEX Development Pack (K15227N) and protocols' revision “2018 March rev 2”. GAPDH was determined by MSD using standard assay K151PWD. All plates were read on MSD SECTOR Imager 2400 using MSD Read Buffer T (R92TC).
(§10) For MSD assays, TNBC cell lines were seeded 25,000 cells per well in clear-bottomed white 96-well plates (Corning #3909) in recommended cell culture medium. Plates were incubated at 37° C. and 100% RH for 20 hours prior to compound exposure. […] After an additional 20 hours, samples were harvested by aspirating away supernatant and 125 μl of 1× lysis buffer was added to each well. Plates were set on ice briefly and transferred to a rocking platform at 4° C. for 20 minutes. Plates were placed on dry ice, snap frozen for 10 minutes then stored at −80° C. until tested.
(§11) MCL1 and MCL1-BAK and MCL1-BIM dimer assays were run using materials and protocols provided by MSD Custom Assay Services based on their U-Plex technology. […] 150 μl of 2× read buffer was added to each well and plates were read on an MSD SECTOR Imager 2400. […]

A further assay has as its system MCL1-BIM Dimer. Kind of assay: MCL1-BIM dimer MSD assay in TNBC cell lines after paclitaxel. The following applies: HCC70, MDA-MB-468, HCC1806; paclitaxel 1 μM for 4 hours, overnight incubation. As for the experimental part:
as §8, §9, §10, §11

For the next assay, the system named is HCC70. Kind of assay: Cell viability combination assay (Cell Titer Glo, Bliss synergy matrix), paclitaxel 4 h pretreatment then compound A. The following applies: Homo sapiens, HCC70, 4 h; read-out: Percent Inhibition. As for the experimental part: as §1, §2, §3, §4, §5, §6, §7
Another assay concerns MDA-MB-468. The assay is described as above. The following applies: Homo sapiens, MDA-MB-468, 4 h; read-out: Percent Inhibition. As for the experimental part: as §1, §2, §3, §4, §5, §6, §7
For the next assay, the system named is FBXW7. Nature of the assay: FBXW7 expression by Protein Simple (Simple Western) in TNBC cell lines after paclitaxel. The settings on record: HCC70, MDA-MB-468, HCC1806; paclitaxel 1 μM for 4 hours, overnight incubation.
The next assay has as its system MCL1. Kind of assay: Total MCL1 MSD assay in TNBC cell lines after paclitaxel. The following applies: HCC70, MDA-MB-468, HCC1806; paclitaxel 1 μM for 4 hours, overnight incubation. As for the experimental part: as §8, §9, §10, §11
Where [2] appears, read: AU565 cell line, compound A × listed agent, 72-hour in vitro proliferation assay.
Where [3] appears, read: BT-20 cell line, compound A × listed agent, 72-hour in vitro proliferation assay.
Where [4] appears, read: DU-4475 cell line, compound A × listed agent, 72-hour in vitro proliferation assay.
Setting [5] is: BT-549 cell line, compound A × listed agent, 72-hour in vitro proliferation assay.
[6] abbreviates: Homo sapiens, read-out: Percent Inhibition.
Where [7] appears, read: BT-474 cell line, compound A × listed agent, 72-hour in vitro proliferation assay.
Where [8] appears, read: KPL-1 cell line, Compound A × named agent, 72-hour proliferation.
[9] abbreviates: MCF7, combination with compound A, 72-hour proliferation.
Where [10] appears, read: MDA-MB-175-VII, combination with compound A, 72-hour proliferation.
The mark [11] stands for this setting: MDA-MB-231, combination with compound A, 72-hour proliferation.
Setting [12] is: MDA-MB-361, combination with compound A, 72-hour proliferation.
The mark [13] stands for this setting: MDA-MB-436, combination with compound A, 72-hour proliferation.
The mark [14] stands for this setting: MDA-MB-453, combination with compound A, 72-hour proliferation.
The mark [15] stands for this setting: MDA-MB-468, combination with compound A, 72-hour proliferation.
The mark [16] stands for this setting: SK-BR-3 cell line, combination Compound A × listed agent, 72-hour proliferation.
Where [17] appears, read: SUM159PT cell line, combination Compound A × listed agent, 72-hour proliferation.
[18] abbreviates: T47D cell line, combination Compound A × listed agent, 72-hour proliferation.
[19] abbreviates: ZR-75-1 cell line, combination Compound A × listed agent, 72-hour proliferation.
[20] abbreviates: ZR-75-30 cell line, combination Compound A × listed agent, 72-hour proliferation.

As a reminder, the inhibition is the relative decrease from the control value, in per cent.

SMILES strings stand for the structures. “Also recorded” adds a separate entry of the source.

Source text for FBXW7: Simple Western immunoassays take place in a capillary. Samples and reagents are loaded into an assay plate and placed in a Protein Simple Instrument. Cell lysates are loaded into the capillary automatically and separated by size as they migrate through a stacking and separation matrix. The separated proteins are then immobilized to the capillary wall via a proprietary, photoactivated capture chemistry. Target proteins are identified using a primary antibody and immunoprobed using an HRP-conjugated secondary antibody and chemiluminescent substrate. The resulting chemiluminescent signal is detected and quantitated.
Lysates were prepared, diluted to 0.5 ug/ml in 1× lysis buffer. Simple Western platform is run on a 384-well plate.
Markers, internal ladders and DTT are provided by Simple Western in lyophilized forms. Reagents are resuspended as protocol describes. 20 uL of water is added to the markers. 40 ul of water is added to DTT, 20 ul of 10× sample buffer and 20 ul of DTT is mixed and called Z buffer. Markers are loaded in 1 A. 5 ul of lysate was added to 1.7 ml Eppendorf tube. 1.2 ul of Z reagent was added to each sample. The samples were heated at 100 C for 5 minutes, allowed to cool than spun in a microfuge for 30 seconds. Samples are loaded in wells A2-12. […] The resulting chemiluminescent signal is detected and quantitated.

For `N.N.O=C([O-])C1(C(=O)[O-])CCC1.[Pt+2]` [Carboplatin], the “Best CI Level” value in [1] (setting [2]) is listed as 40; in assay [1] (setting [3]), 170; in [1] (CAL-51 cell line, compound A × listed agent, 72-hour in vitro proliferation assay) it was 165; in assay [1] (CAL-85-1 cell line, compound A × listed agent, 72-hour in vitro proliferation assay), 110; in assay [1] (CAMA-1 cell line, compound A × listed agent, 72-hour in vitro proliferation assay), 180; in [1] (setting [4]) it was 180. In assay [1] (EVSA-T cell line, compound A × listed agent, 72-hour in vitro proliferation assay), the “Best CI Level” value came out at 180.
`N.N.[Cl][Pt][Cl]` [Cisplatin]: the “Best CI Level” value in assay [1] (setting [2]) came to 35; in assay [1] (setting [3]), 65; in assay [1] (setting [5]) it was 160; in [1] (CAL-120 cell line, compound A × listed agent, 72-hour in vitro proliferation assay), 35; in assay [1] (CAL-148 cell line, compound A × listed agent, 72-hour in vitro proliferation assay), 140; in assay [1] (setting [4]), 40. Further, the “Best CI Level” value in assay [1] (HCC1143 cell line, compound A × listed agent, 72-hour in vitro proliferation assay) amounted to 55.
On to `COc1nn(C)cc1C(=O)N[S@@]1(=O)=NC(=O)c2ccc3c(c2)N(C[C@@H]2CC[C@H]2[C@@H](OC)CCC[C@H](C)C1)C[C@@]1(CCCc2cc(Cl)ccc21)CO3` [Compound A], for which the “Synergy Results (95% CI)” value in the assay with HCC1806 (Compound A 0.004 μM), in the assay with HCC1806 (Compound A 1.000 μM), in the assay with HCC1806 (Compound A 3.000 μM) and in the assay with HCC1806 (Compound A […]) was 0.0 each time. The inhibition at 0.004 µM in the assay on HCC1806 (setting [6]) was 0.7%. Moreover, the inhibition at 1 µM in the assay with HCC1806 (setting [6]) amounted to 8.6%. The inhibition at 3 µM in the assay with HCC1806 (setting [6]) was 17.9%. For the same compound, the “Percent Inhibition” value in the assay with HCC1187 (TNBC) is listed as 99.2%.
Take `CC(=O)O[C@@]12CO[C@@H]1C[C@H](O)[C@@]1(C)C(=O)[C@H](O)C3=C(C)[C@@H](OC(=O)[C@H](O)[C@@H](NC(=O)OC(C)(C)C)c4ccccc4)C[C@@](O)([C@@H](OC(=O)c4ccccc4)[C@H]21)C3(C)C` [Docetaxel]: the “Best CI Level” value in assay [1] (72 h) turned out to be 170.
`CCOc1cc2ncc(C#N)c(Nc3ccc(OCc4ccccn4)c(Cl)c3)c2cc1NC(=O)/C=C/CN(C)C` [Neratinib]: the “Bliss Volume” value in assay [1] (setting [7]) was found to be 28.98; in [1] (setting [5]), 17.92; in [1] (setting [8]), 9.37; in assay [1] (setting [9]) it was 20.28; in assay [1] (setting [10]) it was 18.28; in [1] (setting [11]), 6.82. Besides, the “Bliss Volume” value in assay [1] (setting [12]) came to 8.05; in assay [1] (setting [13]), 5.24; in [1] (setting [15]) it was 34.71; in [1] (setting [16]), 28.46; in [1] (setting [17]), 15.93; in assay [1] (setting [18]), 7.67. Further, the “Bliss Volume” value came out at 13.55 in [1] (setting [19]) and 32.84 in assay [1] (setting [20]). Moreover, the HSA volume in assay [1] (setting [7]) is 20.36; in assay [1] (setting [5]), 13.17; in [1] (setting [8]), 2.11; in [1] (setting [9]), 8.47; in [1] (setting [10]) it was 8.80; in assay [1] (setting [11]), 2.87. Also, the HSA volume in assay [1] (setting [12]) is 9.22; in [1] (setting [13]), −0.69; in assay [1] (setting [14]), 10.24; in [1] (setting [16]) it was 11.39; in assay [1] (setting [17]), 11.51; in assay [1] (setting [18]), 2.55. In addition, the HSA volume in assay [1] (setting [19]) is 6.49; in assay [1] (setting [20]), 16.20. In addition, the “Loewe Volume” value was found to be 18.83 in [1] (setting [7]); 13.98 in assay [1] (setting [5]); 2.47 in [1] (setting [8]); 8.60 in [1] (setting [9]); 7.95 in [1] (setting [10]); 5.05 in assay [1] (setting [11]). Further, the “Loewe Volume” value in assay [1] (setting [12]) was 8.69; in [1] (setting [13]) it was 0.79; in assay [1] (setting [14]) it was 8.51; in assay [1] (setting [15]) it was 9.11; in assay [1] (setting [17]) it was 12.90; in [1] (setting [18]) it was 5.95. Further, the entries for the “Loewe Volume” value in assay [1] (setting [19]) and in [1] (setting [20]) were 7.51 and 14.61, respectively. The “Synergy Score” value in assay [1] (setting [7]) amounted to 39.01; in assay [1] (setting [5]), 25.15; in assay [1] (setting [8]), 9.97; in assay [1] (setting [10]) it was 11.07; in assay [1] (setting [11]), 4.59; in [1] (setting [12]), 10.96. Also, the “Synergy Score” value in assay [1] (setting [13]) worked out at 4.11; in assay [1] (setting [14]) it was 16.63; in assay [1] (setting [15]) it was 19.05; in assay [1] (setting [16]), 22.77; in [1] (setting [17]), 22.98; in assay [1] (setting [18]) it was 11.73. Further, the “Synergy Score” value in assay [1] (setting [19]) stood at 10.39; in assay [1] (setting [20]) it was 30.49. Moreover, the “Best CI” value in assay [1] (setting [5]) came out at 0.31; in assay [1] (setting [8]), 0.55; in assay [1] (setting [9]), 0.44; in assay [1] (setting [10]), 0.64; in [1] (setting [13]), 0.26; in assay [1] (setting [14]), 0.35. Also, the “Best CI” value in [1] (setting [16]) came to 0.12; in [1] (setting [17]) it was 0.17; in [1] (setting [19]) it was 0.86; in [1] (setting [20]) it was 0.41.
Turning to `CC(=O)O[C@H]1C(=O)[C@@]2(C)[C@H]([C@H](OC(=O)c3ccccc3)[C@]3(O)C[C@H](OC(=O)[C@H](O)[C@@H](NC(=O)c4ccccc4)c4ccccc4)C(C)=C1C3(C)C)[C@]1(OC(C)=O)CO[C@@H]1C[C@@H]2O` [Paclitaxel], in the assay with MCL1-BAK Dimer, the “protein levels of MCL1-BAK dimers vs vehicle control (in words)” value was “Decreases; also recorded: reduced”. Further, the “protein levels of MCL1-BIM dimers vs vehicle control (in words)” value in the assay on MCL1-BIM Dimer is reported as “Decreases; also recorded: reduced”. Also, in the assay with HCC70, the inhibition at 0.0005 µM is -2.3%, the inhibition at 1 µM came out at 53.3% and the inhibition at 3 µM amounted to 61.4%. In the assay on MDA-MB-468, the inhibition at 0.0005 µM came to 1.1%, the inhibition at 1 µM was 65.1% and the inhibition at 3 µM is 70.5%. Further, the “FBXW7 protein levels vs vehicle control (in words)” value in the assay on FBXW7 is reported as “Increases; also recorded: elevated”. The “MCL1 protein levels vs vehicle control (in words)” value in the assay on MCL1 is listed as “Decreases; also recorded: reduced”.
